This is an account of results in ChEMBL document CHEMBL1201862, “PubChem BioAssay data set” (2004).

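Interpolation was linear, between the two tested concentrations surrounding the appropriate level; five concentrations were tested over 48 hours in 96-well plates. GI50 = concentration required for 50% inhibition of growth.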 The source made the active and inactive calls. No stated cut-off is given here; in the data, active = GI50 up to about 1.1 µM and inactive = higher.

Some test systems named below: U-251; EKVX; IGROV-1; OVCAR-8; M14; A549; HOP-62; K562; A498; TK-10; SN12C; SF-295; HCT-15; SK-MEL-2; RPMI-8226; OVCAR-4; UACC-62; SF-268; NCI-H460; SR.
Test in all cases: NCI tumour cell line growth inhibition, 48 h

Regarding `COC(=O)c1ccccc1C1CN=NC12Cc1ccc(C)cc1C2=O` (configuration not stated), the GI50 is 41.6 µM (inactive) in the assay on U-251; 65.8 µM (inactive) in the assay with EKVX; 63.8 µM (inactive) in the assay with IGROV-1; > 100 µM (inactive) with OVCAR-8; 65.2 µM (inactive) in the assay with M14; 47.6 µM (inactive) with A549. In addition, the GI50 was > 100 µM (inactive) in the assay with HOP-62; 46.6 µM (inactive) in the assay on K562; > 100 µM (inactive) in the assay with A498; > 100 µM (inactive) in the assay with TK-10; 58.6 µM (inactive) in the assay on SN12C; 46.8 µM (inactive) in the assay with SF-295. In addition, the GI50 in the assay on HCT-15 was 56.1 µM; with SK-MEL-2 it was 28.5 µM (inactive); in the assay with RPMI-8226, 49.7 µM (inactive); with OVCAR-4, 32.8 µM (inactive); in the assay on UACC-62, 68.7 µM (inactive); in the assay on SF-268, > 100 µM (inactive). For the same compound, the values for the GI50 in the assay on NCI-H460 and with SR were > 100 µM (inactive) and 63.8 µM (inactive), respectively.
Consider `CCC1C2C=CC(CC2)N1S(=O)(=O)c1ccc(C)cc1` (configuration not stated), for which the GI50 in the assay on EKVX was 27.8 µM (inactive); in the assay with OVCAR-8 it was > 10 µM (inactive); in the assay with M14, 31 µM (inactive); with A549, 28.2 µM (inactive); with HOP-62, 27.6 µM (inactive); with K562, 18.1 µM (inactive). The GI50 is 33.9 µM (inactive) with A498; 16.4 µM (inactive) with SN12C; 29.2 µM (inactive) with SF-295; 22.8 µM in the assay on HCT-15; 14 µM (inactive) with SK-MEL-2; 12.9 µM (inactive) in the assay on RPMI-8226. In addition, the GI50 in the assay on OVCAR-4 is 31.8 µM (inactive); with UACC-62 it was 11.2 µM (inactive); with SF-268 it was 20.8 µM (inactive); with NCI-H460, 23 µM (inactive); with SR, 22.4 µM (inactive).
For the compound `C=C1[C@H](OC(=O)C(C)C)[C@]23CC4(O)[C@@H]5[C@@]6(C)CCC[C@]57C([C@@H]2C[C@@]1(O)[C@H](O)[C@@H]73)N4C6`, the GI50 with U-251, in the assay with EKVX, with IGROV-1, with OVCAR-8, in the assay on M14 and in the assay with A549 was > 100 µM (inactive) each time. Further, the GI50 with HOP-62 was > 100 µM (inactive); with A498, > 100 µM (inactive); in the assay on TK-10 it was > 100 µM (inactive); in the assay on SF-295, > 100 µM (inactive); with HCT-15, above 100 µM; with SK-MEL-2, > 100 µM (inactive). Besides, the GI50 with RPMI-8226, in the assay on OVCAR-4, in the assay on UACC-62, in the assay with SF-268, in the assay with NCI-H460 and in the assay on SR was > 100 µM (inactive) throughout.
Consider `O=[N+]([O-])c1ccc(/N=N/N2CCCC2)cc1`, for which the GI50 in the assay with U-251, in the assay with EKVX, in the assay with IGROV-1, in the assay with OVCAR-8, with M14 and in the assay with HOP-62 was > 100 µM (inactive) in each case. The GI50 in the assay with K562 was > 100 µM (inactive); in the assay on A498, > 100 µM (inactive); in the assay on TK-10, > 100 µM (inactive); in the assay on SN12C, > 100 µM (inactive); in the assay on SF-295 it was > 100 µM (inactive); in the assay with HCT-15, above 100 µM. The GI50 in the assay with SK-MEL-2, in the assay on RPMI-8226, in the assay with OVCAR-4, in the assay on UACC-62, in the assay with SF-268 and in the assay on NCI-H460 was > 100 µM (inactive) each time. The GI50 in the assay with SR is 79.4 µM (inactive).
`CN(C)CCNC(=O)c1ccc2ccc3cccnc3c2n1`: the GI50 was 16.3 µM (inactive) in the assay with U-251; 15.5 µM (inactive) with EKVX; 25.7 µM (inactive) with IGROV-1; 8.17 µM (inactive) in the assay on OVCAR-8; 16.4 µM (inactive) with M14; 12.1 µM (inactive) in the assay with A549. In addition, the GI50 in the assay with HOP-62 is 19.2 µM (inactive); in the assay on K562 it was 21.5 µM (inactive); with A498, 14.3 µM (inactive); in the assay with TK-10, 9.35 µM (inactive); in the assay with SN12C it was 13.8 µM (inactive); with SF-295, 18.7 µM (inactive). For the same compound, the GI50 in the assay on HCT-15 is 11.8 µM; with SK-MEL-2, 15.2 µM (inactive); with OVCAR-4, 14.5 µM (inactive); in the assay with UACC-62, 16.6 µM (inactive); with SF-268, 16.2 µM (inactive); with NCI-H460, 6.18 µM (inactive). Moreover, the GI50 with SR was 4.24 µM (inactive).
With `COC(=O)C1=C(C(=O)OC)C2(/N=C(\Nc3ccccc3)c3ccccc3)N(c3ccc(OC)cc3)CC(c3ccccc3)N2O1` (configuration not stated), the GI50 in the assay with U-251, in the assay with EKVX, in the assay with IGROV-1, in the assay on OVCAR-8, in the assay with M14 and with A549 was > 100 µM (inactive) throughout. Further, the GI50 in the assay with HOP-62, in the assay with K562, in the assay on A498, with TK-10, in the assay on SN12C and with SF-295 was > 100 µM (inactive) each time. In addition, the GI50 in the assay with HCT-15 is above 100 µM; with SK-MEL-2 it was > 100 µM (inactive); in the assay with OVCAR-4, > 100 µM (inactive); in the assay with UACC-62, > 100 µM (inactive); in the assay on SF-268, > 100 µM (inactive); in the assay with NCI-H460 it was > 100 µM (inactive). Also, in the assay on SR, the GI50 is > 100 µM (inactive).
Turning to `Nc1nc(Cl)c(N)c(NCC2(CO)CCCC2)n1`, the GI50 was > 100 µM (inactive) in the assay on U-251; 20.7 µM (inactive) in the assay with EKVX; 84.7 µM (inactive) in the assay on IGROV-1; > 100 µM (inactive) in the assay on OVCAR-8; > 100 µM (inactive) in the assay on A549; 88.5 µM (inactive) in the assay with HOP-62. The GI50 in the assay on K562 was 77.1 µM (inactive); in the assay on A498, 44.7 µM (inactive); in the assay with TK-10, > 100 µM (inactive); in the assay on SN12C it was > 100 µM (inactive); in the assay with SF-295, 86.7 µM (inactive); in the assay with HCT-15, above 100 µM. For the same compound, the GI50 in the assay on SK-MEL-2 is > 100 µM (inactive); in the assay with RPMI-8226, > 100 µM (inactive); in the assay on OVCAR-4, > 100 µM (inactive); with UACC-62, 1.83 µM (inactive); in the assay with SF-268, > 100 µM (inactive); in the assay on NCI-H460, > 100 µM (inactive). Further, in the assay with SR, the GI50 is > 100 µM (inactive).
As to `COc1cc2c(c(OC)c1OC)-c1ccc(SC)c(=O)cc1C(CC(=O)Oc1cccc([N+](=O)[O-])c1)C2` (configuration not stated), the GI50 in the assay with U-251 is 0.794 µM (active); with EKVX, 3.38 µM (inactive); in the assay on IGROV-1 it was 3.44 µM (inactive); in the assay with OVCAR-8, 0.767 µM (active); with M14, 0.412 µM (active); in the assay on A549, 1.16 µM (inactive). For the same compound, the GI50 with K562 is 0.344 µM (active); in the assay with A498, 0.0277 µM (active); with TK-10, > 90.8 µM (inactive); in the assay with SN12C it was 1.11 µM (active); in the assay on SF-295, 0.342 µM (active); in the assay on HCT-15, 0.4 µM. The GI50 was 0.713 µM (active) in the assay with SK-MEL-2; 0.647 µM (active) with RPMI-8226; 5.66 µM (inactive) with OVCAR-4; 0.356 µM (active) in the assay with UACC-62; 1.02 µM (active) with SF-268; 0.45 µM (active) with NCI-H460. For the same compound, the GI50 with SR is 0.459 µM (active).
Take `CC(=O)NNc1nc(C)c(C(/C=C/c2ccc([N+](=O)[O-])cc2)=N/NC(N)=S)s1`: the GI50 in the assay on U-251, in the assay on EKVX, with IGROV-1, in the assay on OVCAR-8, in the assay with M14 and in the assay with A549 was > 100 µM (inactive) in each case. In addition, the GI50 was > 100 µM (inactive) with HOP-62; > 100 µM (inactive) with A498; > 100 µM (inactive) in the assay on TK-10; > 100 µM (inactive) in the assay with SN12C; > 100 µM (inactive) in the assay with SF-295; above 100 µM in the assay on HCT-15. Besides, the GI50 in the assay on SK-MEL-2, with RPMI-8226, in the assay with OVCAR-4, in the assay on UACC-62, with SF-268 and in the assay with NCI-H460 was > 100 µM (inactive) each time. Moreover, in the assay on SR, the GI50 is > 100 µM (inactive).
Consider `Cc1cc(N(CCC#N)CCC#N)ccc1/C=C1N=C(/C=C\c2ccccc2)N(c2ccc(C(=O)O)cc2)C\1=O`, for which the GI50 in the assay with U-251, in the assay with IGROV-1, in the assay on OVCAR-8, in the assay on M14, with A549 and in the assay with HOP-62 was > 100 µM (inactive) each time. Besides, the GI50 with K562 was > 100 µM (inactive); with A498 it was > 100 µM (inactive); in the assay on TK-10 it was > 100 µM (inactive); in the assay on SN12C, > 100 µM (inactive); with SF-295, > 100 µM (inactive); in the assay with HCT-15, above 100 µM. Besides, the GI50 in the assay with SK-MEL-2, with RPMI-8226, with OVCAR-4, in the assay with UACC-62, with SF-268 and in the assay with NCI-H460 was > 100 µM (inactive) each time. Further, in the assay with SR, the GI50 is > 100 µM (inactive).
In the case of `Cc1cn(CCCCC2=NCCCN2)c(=O)[nH]c1=O`, the GI50 was > 30.5 µM (inactive) with U-251; > 29.9 µM (inactive) in the assay with EKVX; > 26.5 µM (inactive) in the assay with IGROV-1; > 25.2 µM (inactive) with M14; > 35.1 µM (inactive) in the assay on A549; > 46.6 µM (inactive) in the assay on HOP-62. Also, the GI50 in the assay on K562 was > 24.6 µM (inactive); in the assay on A498 it was > 31.8 µM (inactive); in the assay on TK-10 it was 9.18 µM (inactive); in the assay on SN12C, > 100 µM (inactive); in the assay with SF-295, 46.5 µM (inactive); in the assay with HCT-15 it was above 32.2 µM. Also, the GI50 was > 26.9 µM (inactive) in the assay on SK-MEL-2; > 100 µM (inactive) in the assay with RPMI-8226; > 29.5 µM (inactive) in the assay on OVCAR-4; > 42.2 µM (inactive) in the assay on UACC-62; 1.34 µM (inactive) in the assay with SF-268; > 52.5 µM (inactive) in the assay with NCI-H460. Besides, the GI50 in the assay on SR is > 28.9 µM (inactive).
